One assay concerns the target T1, human PTH-1 receptor (Homo sapiens, UniProt Q03431).
T1 construct: expressed in transfected cells; host or cells: HEK-293
T1 sequence (Q03431 27-593): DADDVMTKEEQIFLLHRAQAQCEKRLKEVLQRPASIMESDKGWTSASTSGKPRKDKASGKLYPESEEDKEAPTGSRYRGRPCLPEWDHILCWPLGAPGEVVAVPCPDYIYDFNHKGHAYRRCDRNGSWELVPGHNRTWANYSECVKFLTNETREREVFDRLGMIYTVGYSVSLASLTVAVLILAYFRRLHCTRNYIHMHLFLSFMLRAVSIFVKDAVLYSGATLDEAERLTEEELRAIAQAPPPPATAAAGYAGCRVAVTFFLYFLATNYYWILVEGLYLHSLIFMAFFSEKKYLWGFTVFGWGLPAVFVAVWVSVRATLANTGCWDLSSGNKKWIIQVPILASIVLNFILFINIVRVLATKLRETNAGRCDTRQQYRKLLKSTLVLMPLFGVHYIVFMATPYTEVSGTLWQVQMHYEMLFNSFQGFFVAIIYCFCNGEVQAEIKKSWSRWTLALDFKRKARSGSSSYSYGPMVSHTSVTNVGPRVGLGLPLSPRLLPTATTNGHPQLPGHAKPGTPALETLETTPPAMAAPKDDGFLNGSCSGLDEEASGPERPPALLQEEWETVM
Nature of the assay: Reporter gene assay (CRE-luciferase) for agonist activity in transiently transfected HEK-293 cells. It counts as cell-based. The note with it: for hPTHR-2/hPTHR-1: Table 3, ratio of EC50 values, selectivity for hPTH-1 receptor over hPTH-2 receptor. A digest of the protocol:
(§1)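 Selectivity came from luciferase transcriptional reporter assays expressing human PTH-2 receptor. PTH-1 agonism used transiently transfected HEK-293 cells carrying SV40-promoter receptor and cAMP-responsive-element luciferase; 4-5 h compound exposure, lysis, luminescence, non-linear-regression EC50/efficacy; ≥3 independent runs, PTH (1-34) control each.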
(In general: Reporter assays use an easily measured gene product as a stand-in for the process of interest.)

A further assay addresses T2, human PTH-2 receptor (Homo sapiens, UniProt P49190).
T2 construct: expressed in transfected cells
Nature of the assay: Luciferase-based transcriptional reporter gene assay for selectivity. The class given is cell-based. In outline: as §1

Non-standard residues stand in square brackets, D forms with d. Residues, ends and D or L forms follow the SMILES beside them. 1Nal = N[C@@H](Cc1cccc2ccccc12)C(=O)O; β3hI = CC[C@H](C)[C@H](N)CC(=O)O; Nle = CCCC[C@H](N)C(=O)O; Aib = CC(C)(N)C(=O)O

T2 sequence (P49190 25-550): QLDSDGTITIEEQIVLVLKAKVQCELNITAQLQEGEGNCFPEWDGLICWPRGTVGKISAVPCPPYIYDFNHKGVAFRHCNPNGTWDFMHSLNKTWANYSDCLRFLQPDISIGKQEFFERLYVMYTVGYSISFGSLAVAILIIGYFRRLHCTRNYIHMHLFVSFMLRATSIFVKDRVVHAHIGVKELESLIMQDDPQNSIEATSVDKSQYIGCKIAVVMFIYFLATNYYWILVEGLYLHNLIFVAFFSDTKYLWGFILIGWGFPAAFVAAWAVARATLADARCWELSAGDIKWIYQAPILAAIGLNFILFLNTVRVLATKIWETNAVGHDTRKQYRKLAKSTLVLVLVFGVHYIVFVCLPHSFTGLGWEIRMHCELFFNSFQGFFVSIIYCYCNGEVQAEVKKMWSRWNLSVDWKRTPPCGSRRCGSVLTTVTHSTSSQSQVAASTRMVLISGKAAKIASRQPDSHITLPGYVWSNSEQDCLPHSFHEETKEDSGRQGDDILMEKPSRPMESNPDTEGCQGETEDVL

Consider `CCCC[C@H](NC(=O)[C@H](CC(C)C)NC(=O)[C@H](CCC(N)=O)NC(=O)[C@@H](NC(=O)[C@H](CCC(=O)O)NC(=O)[C@H](CO)NC(=O)[C@@H](NC(=O)[C@@H](N)CO)C(C)C)[C@@H](C)CC)C(=O)N[C@@H](Cc1c[nH]cn1)C(=O)N[C@@H](CC(N)=O)C(=O)N[C@@H](CC(C)C)C(=O)NCC(=O)N[C@@H](CCCCN)C(=O)N[C@@H](Cc1c[nH]cn1)C(=O)N[C@@H](CC(C)C)C(=O)N[C@@H](CC(N)=O)C(=O)N[C@@H](CO)C(=O)N[C@H](CC(=O)N[C@@H](CCC(=O)O)C(=O)N[C@@H](CCCNC(=N)N)C(=O)N[C@H](C(=O)N[C@@H](CCC(=O)O)C(=O)N[C@@H](Cc1cccc2ccccc12)C(=O)N[C@@H](CC(C)C)C(=O)N[C@@H](CCCNC(=N)N)C(=O)N[C@@H](CCCCN)C(=O)N[C@@H](CC(C)C)C(=O)N[C@@H](CC(C)C)C(=O)N[C@@H](CCC(N)=O)C(=O)N[C@@H](CC(=O)O)C(=O)N[C@H](C(=O)N[C@@H](Cc1c[nH]cn1)C(=O)N[C@@H](CCCCN)C(=O)N[C@@H](Cc1ccccc1)C(N)=O)C(C)C)C(C)C)[C@@H](C)CC` [SEQ ID NO: 28, [Nle^8, β-hIle^18,1-Nal^23, Leu^27, Lys^33] hPTH (1-34)-NH2] (H-SVSEIQL[Nle]HNLGKHLNS[β3hI]ERVE[1Nal]LRKLLQDVHKF-NH2), for which the hPTHR-2/hPTHR-1 at human PTH-1 receptor is 209. Moreover, the response at human PTH-2 receptor was half-maximal at 32 nM (EC50).

`CCCC[C@H](NC(=O)[C@H](CC(C)C)NC(=O)[C@H](CCC(N)=O)NC(=O)[C@@H](NC(=O)[C@H](CCC(=O)O)NC(=O)[C@H](CO)NC(=O)[C@@H](NC(=O)C(C)(C)N)C(C)C)[C@@H](C)CC)C(=O)N[C@@H](Cc1c[nH]cn1)C(=O)N[C@@H](CC(N)=O)C(=O)N[C@@H](CC(C)C)C(=O)NCC(=O)N[C@@H](CCCCN)C(=O)N[C@@H](Cc1c[nH]cn1)C(=O)N[C@@H](CC(C)C)C(=O)N[C@@H](CCCCN)C(=O)N[C@@H](CO)C(=O)N[C@H](CC(=O)N[C@@H](CCC(=O)O)C(=O)N[C@@H](CCCNC(=N)N)C(=O)N[C@H](C(=O)N[C@@H](CCC(=O)O)C(=O)N[C@@H](Cc1cccc2ccccc12)C(=O)N[C@@H](CC(C)C)C(=O)N[C@@H](CCCNC(=N)N)C(=O)N[C@@H](CCCCN)C(=O)N[C@@H](CC(C)C)C(=O)N[C@@H](CC(C)C)C(=O)N[C@@H](CCC(N)=O)C(=O)N[C@@H](CCCNC(=N)N)C(=O)N[C@H](C(=O)N[C@@H](Cc1c[nH]cn1)C(=O)N[C@@H](CCC(=O)O)C(=O)N[C@@H](Cc1ccccc1)C(N)=O)C(C)C)C(C)C)[C@@H](C)CC` [SEQ ID NO: 39, [Aib^1, Nle^8, Lys^16, β-hIle^18,1-Nal^23, Leu^27, Arg^30, Glu^33] hPTH (1-34)-NH2] (H-[Aib]VSEIQL[Nle]HNLGKHLKS[β3hI]ERVE[1Nal]LRKLLQRVHEF-NH2; N-terminus assumed): on human PTH-1 receptor, the concentration for a half-maximal effect (EC50) – broadly, the midpoint of the concentration-response curve – was 0.09 nM and the hPTHR-2/hPTHR-1 came out at 61. The same molecule registered a 50% effective concentration (EC50) at human PTH-2 receptor of 6 nM.

These data come from patent publication US20110195900A1, “PEPTIDIC PTH RECEPTOR AGONISTS” (FERRING B.V., priority 2008, published 2011).
